Patent US20110098288A1, “SULFONAMIDES AS ZAP-70 INHIBITORS” (priority 2008, published 2011)
Structures can show the parent of a compound that is named as a salt.

target: T1, ZAP-70 (Homo sapiens, UniProt P43403); assay: ZAP-70 kinobeads assay; type: binding; settings: competition with immobilized aminopyrido-pyrimidine ligand 24 in cell lysate; ZAP-70 detected by dot blot
T1 construct: endogenous in cells; host or cells: cell lysate
T1 sequence (P43403 1-619): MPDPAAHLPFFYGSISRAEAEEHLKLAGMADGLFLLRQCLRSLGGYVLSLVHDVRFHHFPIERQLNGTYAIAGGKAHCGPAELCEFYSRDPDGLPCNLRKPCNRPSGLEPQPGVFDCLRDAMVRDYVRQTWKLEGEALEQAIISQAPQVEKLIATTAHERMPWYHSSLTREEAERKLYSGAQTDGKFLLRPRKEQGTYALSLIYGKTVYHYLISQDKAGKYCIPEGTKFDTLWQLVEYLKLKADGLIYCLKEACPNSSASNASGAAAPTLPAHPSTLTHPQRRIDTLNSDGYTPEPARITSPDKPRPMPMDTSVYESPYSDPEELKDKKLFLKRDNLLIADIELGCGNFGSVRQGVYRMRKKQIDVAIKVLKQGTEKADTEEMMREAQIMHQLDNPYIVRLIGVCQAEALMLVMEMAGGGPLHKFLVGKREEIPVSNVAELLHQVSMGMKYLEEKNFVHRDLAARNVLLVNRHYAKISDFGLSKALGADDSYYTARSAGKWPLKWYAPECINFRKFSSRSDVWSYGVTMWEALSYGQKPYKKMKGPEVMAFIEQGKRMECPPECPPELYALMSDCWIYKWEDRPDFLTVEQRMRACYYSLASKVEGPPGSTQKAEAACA
Experimental: The compounds of the present invention as described in the previous examples can be tested in the ZAP-70 kinobeads assay as described (EP-A 1862802 and WO-A 2007/137867). Briefly, test compounds (at various concentrations) and the affinity matrix with the immobilized aminopyrido-pyrimidine ligand 24 are added to cell lysate aliquots and allowed to bind to the proteins in the lysate sample. After the incubation time the beads with captured proteins are separated from the lysate. Bound proteins are then eluted and the presence ZAP-70 is detected and quantified using a specific antibody in a dot blot procedure and the Odyssey infrared detection system. Conventionally, ZAP-70 kinase activity can be measured using purified or recombinant enzyme in a solution-based assay with protein or peptide substrates (Isakov et al., 1996, J. Biol. Chem. 271(26), 15753-15761; Moffat et al., 1999, Bioorg. Med. Chem. Letters 9, 3351-3356).

Compared with `COc1cc(Nc2ncc(F)c(Nc3cccc(C)c3NS(C)(=O)=O)n2)cc(OCC(C)C)c1OC` [Example 119, N-(2-(5-fluoro-2-(3-isobutoxy-4,5-dimethoxyphenylamino)pyrimidin-4-ylamino)-6-methylphenyl)methanesulfonamide], `Cc1cccc(Nc2nc(Nc3cccc(OC(C)C)c3)ncc2F)c1NS(C)(=O)=O` [Example 121, N-(2-(5-fluoro-2-(3-isopropoxyphenylamino)pyrimidin-4-ylamino)-6-methylphenyl)methanesulfonamide] is higher in IC50: 100 to 1000 nM for the first, 1000 to 10000 nM for the second. The first is the more potent here.

`CS(=O)(=O)Nc1ccccc1Nc1nc(Nc2cccc(-n3cccn3)c2)ncc1F` [Example 17, N-(2-(2-(3-(1H-pyrazol-1-yl)phenylamino)-5-fluoropyrimidin-4-ylamino)phenyl)methanesulfonamide] and `CS(=O)(=O)Nc1ccccc1Nc1nc(Nc2cccc(-n3cnnn3)c2)ncc1F` [Example 188, N-(2-(2-(3-(1H-tetrazol-1-yl)phenylamino)-5-fluoropyrimidin-4-ylamino)phenyl)methanesulfonamide] fall in the same range of IC50: 1000 to 10000 nM for the first, 1000 to 10000 nM for the second.

`COc1ccc(Nc2nc(Nc3ccc(OC)c(OC)c3)ncc2F)c(NS(C)(=O)=O)c1` [Example 180, N-(2-(2-(3,4-dimethoxyphenylamino)-5-fluoropyrimidin-4-ylamino)-5-methoxyphenyl)methanesulfonamide] and `COc1ccc(Nc2nc(Nc3ccc(OC)c(OC)c3)ncc2Br)c(NS(C)(=O)=O)c1` [Example 179, N-(2-(5-bromo-2-(3,4-dimethoxyphenylamino)pyrimidin-4-ylamino)-5-methoxyphenyl)methanesulfonamide] cannot be ordered by IC50: less than 100 nM for the first, less than 100 nM for the second.

First: COc1ccc(Nc2ncc(F)c(Nc3ccccc3N(C)S(C)(=O)=O)n2)cc1OC [Example 109, N-(2-(2-(3,4-dimethoxyphenylamino)-5-fluoropyrimidin-4-ylamino)phenyl)-N-methylmethanesulfonamide]
Second: COc1cc(Nc2ncc(F)c(Nc3ccccc3NS(C)(=O)=O)n2)ccc1Cl [Example 10, N-(2-(2-(4-chloro-3-methoxyphenylamino)-5-fluoropyrimidin-4-ylamino)phenyl)methanesulfonamide]
The IC50 of the first is lower: 100 to 1000 nM for the first, 1000 to 10000 nM for the second. The first is the more potent here.

`CCN(c1ccccc1Nc1nc(Nc2ccc(OCCN3CCOCC3)cc2)ncc1F)S(C)(=O)=O` [Example 159, N-ethyl-N-(2-(5-fluoro-2-(4-(2-morpholinoethoxy)phenylamino)pyrimidin-4-ylamino)phenyl)methanesulfonamide] and `CCN(c1ccccc1Nc1nc(Nc2ccc(OC)cc2)ncc1F)S(C)(=O)=O` [Example 156, N-ethyl-N-(2-(5-fluoro-2-(4-methoxyphenylamino)pyrimidin-4-ylamino)phenyl)methanesulfonamide] fall in the same range of IC50: 100 to 1000 nM for the first, 100 to 1000 nM for the second.

Compared with `CCOC(=O)COc1ccc(Nc2ncc(F)c(Nc3ccccc3NS(C)(=O)=O)n2)cc1` [Example 144, Ethyl 2-(4-(5-fluoro-4-(2-(methylsulfonamido)phenylamino)pyrimidin-2-ylamino)phenoxy)acetate hydrochloride], `Cc1nnnn1-c1ccc(Nc2ncc(F)c(Nc3ccccc3NS(C)(=O)=O)n2)cc1` [Example 199, N-(2-(5-fluoro-2-(4-(5-methyl-1H-tetrazol-1-yl)phenylamino)pyrimidin-4-ylamino)phenyl)methanesulfonamide] is lower in IC50: 1000 to 10000 nM for the first, 100 to 1000 nM for the second.

First: CNC(=O)c1cccc(Nc2ncc(F)c(Nc3ccccc3NS(C)(=O)=O)n2)c1 [Example 80, 3-(5-fluoro-4-(2-(methylsulfonamido)phenylamino)pyrimidin-2-ylamino)-N-methylbenzamide]
Second: CN(C)C(=O)c1cccc(Nc2ncc(F)c(Nc3ccccc3NS(C)(=O)=O)n2)c1 [Example 84, 3-(5-fluoro-4-(2-(methylsulfonamido)phenylamino)pyrimidin-2-ylamino)-N,N-dimethylbenzamide]
The IC50 of the first is higher: 1000 to 10000 nM for the first, 100 to 1000 nM for the second. The second is the more potent here.

`CS(=O)(=O)Nc1ccccc1Nc1nc(Nc2cccc(N3CCCC3)c2)ncc1F` [Example 85, N-(2-(5-fluoro-2-(3-(pyrrolidin-1-yl)phenylamino)pyrimidin-4-ylamino)phenyl)methanesulfonamide] and `CS(=O)(=O)Nc1ccccc1Nc1nc(Nc2cccc(C#N)c2)ncc1F` [Example 200, N-(2-(2-(3-cyanophenylamino)-5-fluoropyrimidin-4-ylamino)phenyl)methanesulfonamide] fall in the same range of IC50: 1000 to 10000 nM for the first, 1000 to 10000 nM for the second.

`CS(=O)(=O)Nc1ccccc1Nc1nc(Nc2ccc(-n3cncn3)cc2)ncc1F` [Example 198, N-(2-(2-(4-(1H-1,2,4-triazol-1-yl)phenylamino)-5-fluoropyrimidin-4-ylamino)phenyl)methanesulfonamide] and `CS(=O)(=O)Nc1ccccc1Nc1nc(Nc2ccc(-n3cncn3)cc2)ncc1Cl` [Example 212, N-(2-(2-(4-(1H-1,2,4-triazol-1-yl)phenylamino)-5-chloropyrimidin-4-ylamino)phenyl)methanesulfonamide] fall in the same range of IC50: 100 to 1000 nM for the first, 100 to 1000 nM for the second.

`CS(=O)(=O)Nc1ccccc1Nc1nc(Nc2cccc(OCCN3CCNCC3)c2)ncc1Cl` [Example 133, N-(2-(5-chloro-2-(3-(2-(piperazin-1-yl)ethoxy)phenylamino)pyrimidin-4-ylamino)phenyl)methanesulfonamide trifluoroacetate] and `CS(=O)(=O)Nc1ccccc1Nc1nc(Nc2cccc(OCCC3CCCN3)c2)ncc1Cl` (stereo not shown) [Example 131, N-(2-(5-chloro-2-(3-(2-(pyrrolidin-2-yl)ethoxy)phenylamino)pyrimidin-4-ylamino)phenyl)methanesulfonamide] cannot be ordered by IC50: less than 100 nM for the first, less than 100 nM for the second.

First: COCCOc1cccc(Nc2ncc(F)c(Nc3cccc(C)c3NS(C)(=O)=O)n2)c1 [Example 115, N-(2-(5-fluoro-2-(3-(2-methoxyethoxy)phenylamino)pyrimidin-4-ylamino)-6-methylphenyl)methanesulfonamide]
Second: CS(=O)(=O)Nc1ccccc1Nc1nc(Nc2cccc(OC(F)F)c2)ncc1F [Example 26, N-(2-(2-(3-(difluoromethoxy)phenylamino)-5-fluoropyrimidin-4-ylamino)phenyl)methanesulfonamide]
The IC50 of the first is lower: 100 to 1000 nM for the first, 1000 to 10000 nM for the second.

Compared with `CS(=O)(=O)Nc1ccccc1Nc1nc(Nc2ccccc2)ncc1F` [Example 34, N-(2-(5-fluoro-2-(phenylamino)pyrimidin-4-ylamino)phenyl)methanesulfonamide], `CS(=O)(=O)Nc1ccccc1Nc1nc(Nc2ccc3nn[nH]c3c2)ncc1F` [Example 33, N-(2-(2-(1H-benzo[d][1,2,3]-triazol-6-ylamino)-5-fluoropyrimidin-4-ylamino)phenyl)methanesulfonamide] is lower in IC50: 1000 to 10000 nM for the first, 100 to 1000 nM for the second.

`Cc1nnc(-c2cccc(Nc3ncc(F)c(Nc4ccccc4NS(C)(=O)=O)n3)c2)[nH]1` [Example 24, N-(2-(5-fluoro-2-(3-(5-methyl-4H-1,2,4-triazol-3-yl)phenylamino)pyrimidin-4-ylamino)phenyl)methanesulfonamide] and `Cc1nnnn1-c1cccc(Nc2ncc(F)c(Nc3ccccc3NS(C)(=O)=O)n2)c1` [Example 194, N-(2-(5-fluoro-2-(3-(5-methyl-1H-tetrazol-1-yl)phenylamino)pyrimidin-4-ylamino)phenyl)methanesulfonamide] fall in the same range of IC50: 1000 to 10000 nM for the first, 1000 to 10000 nM for the second.

First: COc1cc(Nc2ncc(F)c(Nc3cccc(NS(=O)(=O)CCN(C)C)c3)n2)cc(OC)c1OC [Example 65, 2-(Dimethylamino)-N-(3-(5-fluoro-2-(3,4,5-trimethoxyphenylamino)pyrimidin-4-ylamino)phenyl)ethanesulfonamide]
Second: COc1ccc(Nc2nc(Nc3ccc(OC)c(OC)c3)ncc2Cl)c(NS(C)(=O)=O)c1 [Example 153, N-(2-(5-chloro-2-(3,4-dimethoxyphenylamino)pyrimidin-4-ylamino)-5-methoxyphenyl)methanesulfonamide]
The IC50 of the first is higher: 1000 to 10000 nM for the first, less than 100 nM for the second. The second is the more potent here.

First: CN1C(=O)COc2ccc(Nc3ncc(F)c(Nc4ccccc4NS(C)(=O)=O)n3)cc21 [Example 20, N-(2-(5-fluoro-2-(4-methyl-3-oxo-3,4-dihydro-2H-benzo[b][1,4]oxazin-6-ylamino)pyrimidin-4-ylamino)phenyl)methanesulfonamide]
Second: CS(=O)(=O)Nc1ccccc1Nc1nc(Nc2cccc(-n3cnnn3)c2)ncc1Br [Example 216, N-(2-(2-(3-(1H-tetrazol-1-yl)phenylamino)-5-bromopyrimidin-4-ylamino)phenyl)methanesulfonamide]
The IC50 of the first is higher: 1000 to 10000 nM for the first, 100 to 1000 nM for the second. The second is the more potent here.

Work on `CCN(c1ccccc1Nc1nc(Nc2cc(C)cc(C)c2)ncc1F)S(C)(=O)=O` [Example 155, N-(2-(2-(3,5-dimethylphenylamino)-5-fluoropyrimidin-4-ylamino)phenyl)-N-ethylmethanesulfonamide] yielded an IC50 of 1000 to 10000 nM.
